Measurements as given in patent US11219215B2, “Herbicidal composition comprising cinmethylin and specific inhibitors of protoporphyrinogen oxidase” (BASF Agro B.V., priority 2015, dated 2022).
“And” between values parts separate entries of the source, which are not always exact repeats. Equal values may be shown once.

Columns and labels:
Format in all cases: in vivo
[1] = system: Sorghum halepense; experiment: Greenhouse preemergence herbicidal activity, SORHA; conditions: 20 DAT
Procedure: (§1) The containers were irrigated gently to promote germination and growth and subsequently covered with transparent plastic hoods until the plants had rooted.
(§2) The plants have been cultivated due to their individual requirements at 10-25° C. and 20-35° C.
(§3) The plants were irrigated due to their necessity.
(§4) The racemic mixture (±)-2-exo-(2-Methylbenzyloxy)-1-methyl-4-isopropyl-7-oxabicyclo[2.2.1]heptane was used as herbicide A and formulated as emulsifiable concentrates with an active ingredient concentration of 50g/I, 100 g/I or 750 g/I respectively.
(§5) Flumioxazin (herbicide B.1) was used as a wettable powder (WP) formulation having an active ingredient concentration of 50%.
(§6) Sulfentrazone (herbicide B.2) was used as a suspension concentrate (SC) having an active ingredient concentration of 480 g/l.
(§7) In the following experiments, the herbicidal activity for the individual herbicidal compositions (solo and mixture applications) was assessed 20 days after treatment (DAT).
(§8) The evaluation for the damage on undesired weeds caused by the chemical compositions was carried out using a scale from 0 to 100%, compared to the untreated control plants. Here, 0 means no damage and 100 means complete destruction of the plants.
(§9) E=X+Y−(X·Y/100) where X=effect in percent using herbicide A at an application rate a; • Y=effect in percent using herbicide B at application rate b; • E=expected effect (in %) of herbicide A+herbicide B at application rates a+b.
(§10) The value E corresponds to the effect (plant damage or injury) which is to be expected if the activity of the individual compounds is additive. If the observed effect is higher than the value E calculated according to the Colby equation, a synergistic effect is present.

[2] = system: Stellaria media; experiment: Greenhouse preemergence herbicidal activity, STEME; conditions: 20 DAT
Procedure: as §1, §2, §3, §4, §5, §6, §7, §8, §9, §10

[3] = system: Setaria viridis; experiment: Greenhouse preemergence herbicidal activity, SETVI; conditions: 20 DAT
Procedure: as §1, §2, §3, §4, §5, §6, §7, §8, §9, §10

[4] = system: Abutilon theophrasti; experiment: Greenhouse preemergence herbicidal activity, ABUTH; conditions: 20 DAT
Procedure: as §1, §2, §3, §4, §5, §6, §7, §8, §9, §10

[5] = system: Chenopodium album; experiment: Greenhouse preemergence herbicidal activity, CHEAL; conditions: 20 DAT
Procedure: as §1, §2, §3, §4, §5, §6
(§11) In the following experiments, the herbicidal activity for the individual herbicidal compositions (solo and mixture applications) was assessed 20 days after treatment (DAT). […]
as §10

[6] = system: Galium aparine; experiment: Greenhouse preemergence herbicidal activity, GALAP; conditions: 20 DAT
Procedure: as §1, §2, §3, §4, §5, §6, §7, §8, §9, §10

[7] = system: Setaria viridis; experiment: Greenhouse postemergence herbicidal activity, SETVI; conditions: 20 DAT
Procedure: (§12) For the post emergence treatment, the plants were first grown to the 2 leaf station (GS 12). Here, the herbicidal compositions were suspended or emulsified in water as distribution medium and sprayed using finely distributing nozzles.
as §2, §3, §4, §5, §6, §11, §10

[8] = system: Geranium dissectum; experiment: Greenhouse preemergence herbicidal activity, GERDI; conditions: 20 DAT
Procedure: as §1, §2, §3, §4, §5, §6, §7, §8, §9, §10

[9] = system: Anthemis arvensis; experiment: Greenhouse preemergence herbicidal activity, ANTAR; conditions: 20 DAT
Procedure: as §1, §2, §3, §4, §5, §6, §7, §8, §9, §10

[10] = system: Geranium dissectum; experiment: Greenhouse postemergence herbicidal activity, GERDI; conditions: herbicide A solo 62.5 g ai/ha, 20 DAT
Procedure: as §12, §2, §3, §4, §5, §6, §11, §10

[11] = system: Digitaria sanguinalis; experiment: Greenhouse postemergence herbicidal activity, DIGSA; conditions: 20 DAT
Procedure: as §12, §2, §3, §4, §5, §6, §7, §8, §9, §10

[12] = system: Alopecurus myosuroides; experiment: Greenhouse preemergence herbicidal activity, ALOMY; conditions: 20 DAT
Procedure: as §1, §2, §3, §4, §5, §6, §7, §8, §9, §10

[13] = system: Lolium multiflorum; experiment: Greenhouse preemergence herbicidal activity, LOLMU; conditions: 20 DAT
Procedure: as §1, §2, §3, §4, §5, §6, §7, §8, §9, §10

[14] = system: Polygonum convolvulus; experiment: Greenhouse preemergence herbicidal activity, POLCO; conditions: 20 DAT
Procedure: as §1, §2, §3, §4, §5, §6, §7, §8, §9, §10

[15] = system: Avena fatua; experiment: Greenhouse preemergence herbicidal activity, AVEFA; conditions: 20 DAT
Procedure: as §1, §2, §3, §4, §5, §6, §11, §10

[16] = sulfentrazone solo 12.5 g ai/ha

Cc1ccccc1CO[C@@H]1C[C@]2(C(C)C)CC[C@@]1(C)O2 (racemic) [herbicide A, (±)-2-exo-(2-Methylbenzyloxy)-1-methyl-4-isopropyl-7-oxabicyclo[2.2.1]heptane]
herbicidal activity ([1]; herbicide A solo 25 g ai/ha): 90%
herbicidal activity ([1]; herbicide A solo 62.5 g ai/ha): 90%
herbicidal activity ([1]; herbicide A solo 125 g ai/ha): 95%
herbicidal activity ([1]; herbicide A solo 250 g ai/ha): 98%
herbicidal activity ([2]; herbicide A solo 25 g ai/ha): 20%
herbicidal activity ([2]; herbicide A solo 50 g ai/ha): 20%
herbicidal activity ([2]; herbicide A solo 62.5 g ai/ha): 45%
herbicidal activity ([3]; herbicide A solo 25 g ai/ha): 75%
herbicidal activity ([3]; herbicide A solo 31.25 g ai/ha): 95%
herbicidal activity ([4]; herbicide A solo 50 g ai/ha): 0%
herbicidal activity ([4]; herbicide A solo 100 g ai/ha): 0%
herbicidal activity ([5]; herbicide A solo 62.5 g ai/ha): 45%
herbicidal activity ([5]; herbicide A solo 125 g ai/ha): 60%
herbicidal activity ([6]; herbicide A solo 31.25 g ai/ha): 30%
herbicidal activity ([6]; herbicide A solo 62.5 g ai/ha): 0%
herbicidal activity ([6]; herbicide A solo 125 g ai/ha): 0%
herbicidal activity ([6]; herbicide A solo 200 g ai/ha): 30%
herbicidal activity ([6]; herbicide A solo 500 g ai/ha): 70%
herbicidal activity ([7]; herbicide A solo 62.5 g ai/ha): 40%
herbicidal activity ([7]; herbicide A solo 125 g ai/ha): 60%
herbicidal activity ([8]; herbicide A solo 50 g ai/ha): 50%
herbicidal activity ([8]; herbicide A solo 62.5 g ai/ha): 70% and 80%
herbicidal activity ([8]; herbicide A solo 100 g ai/ha): 50%
herbicidal activity ([8]; herbicide A solo 125 g ai/ha): 70%
herbicidal activity ([8]; herbicide A solo 250 g ai/ha): 70%
herbicidal activity ([9]; herbicide A solo 25 g ai/ha): 0%
herbicidal activity ([9]; herbicide A solo 31.25 g ai/ha): 0%
herbicidal activity ([9]; herbicide A solo 62.5 g ai/ha): 0%
herbicidal activity ([9]; herbicide A solo 125 g ai/ha): 20%
herbicidal activity [10]: 75%
herbicidal activity ([11]; herbicide A solo 62.5 g ai/ha): 60%
herbicidal activity ([11]; herbicide A solo 125 g ai/ha): 65%
herbicidal activity ([11]; herbicide A solo 250 g ai/ha): 80%
herbicidal activity ([12]; herbicide A solo 31.25 g ai/ha): 95%
herbicidal activity ([12]; herbicide A solo 62.5 g ai/ha): 98%
herbicidal activity ([13]; herbicide A solo 25 g ai/ha): 50%
herbicidal activity ([13]; herbicide A solo 31.25 g ai/ha): 75%
herbicidal activity ([13]; herbicide A solo 62.5 g ai/ha): 85% and 90%
herbicidal activity ([13]; herbicide A solo 125 g ai/ha): 90%
herbicidal activity ([13]; herbicide A solo 500 g ai/ha): 95%
herbicidal activity ([14]; herbicide A solo 25 g ai/ha): 0%
herbicidal activity ([14]; herbicide A solo 50 g ai/ha): 0%
herbicidal activity ([14]; herbicide A solo 62.5 g ai/ha): 0%
herbicidal activity ([14]; herbicide A solo 250 g ai/ha): 45%
herbicidal activity ([15]; herbicide A solo 62.5 g ai/ha): 40%
herbicidal activity ([15]; herbicide A solo 250 g ai/ha): 65%

Cc1nn(-c2cc(NS(C)(=O)=O)c(Cl)cc2Cl)c(=O)n1C(F)F [sulfentrazone, 2′,4′-dichloro-5′-(4-difluoromethyl-4,5-dihydro-3-methyl-5-oxo-1H-1,2,4-triazol-1-yl)methanesulfonanilide]
herbicidal activity [1, 16]: 0%
herbicidal activity ([1]; sulfentrazone solo 100 g ai/ha): 80%
herbicidal activity [2, 16]: 0%
herbicidal activity ([2]; sulfentrazone solo 25 g ai/ha): 20%
herbicidal activity ([2]; sulfentrazone solo 50 g ai/ha): 40%
herbicidal activity [3, 16]: 0%
herbicidal activity ([3]; sulfentrazone solo 25 g ai/ha): 65%
herbicidal activity ([4]; sulfentrazone solo 25 g ai/ha): 65%
herbicidal activity ([4]; sulfentrazone solo 50 g ai/ha): 65%
herbicidal activity ([6]; sulfentrazone solo 100 g ai/ha): 98%
herbicidal activity ([8]; sulfentrazone solo 25 g ai/ha): 50%
herbicidal activity [9, 16]: 40%
herbicidal activity ([9]; sulfentrazone solo 25 g ai/ha): 85%
herbicidal activity ([12]; sulfentrazone solo 25 g ai/ha): 35%
herbicidal activity [13, 16]: 0%
herbicidal activity ([13]; sulfentrazone solo 100 g ai/ha): 80%
herbicidal activity [14, 16]: 20%
herbicidal activity ([14]; sulfentrazone solo 25 g ai/ha): 90%
